Experimental findings from US7741350B1 (Cara Therapeutics, Inc., priority 2009, dated 2010) are described below.

For assay [1], the target named is human CB1 receptor (hCB1) (Homo sapiens, UniProt P21554). Kind of assay: cAMP assay at human CB1 receptor. The assay is classed as cell-based. The settings on record: hCB1R; maximum measurable range 30 μM; read-out: EC50 (Potency at Human CB1 determined by cAMP Assay). The protocol: The ability of each of the compounds to act as agonists or inverse agonists at human CB2 and CB1 receptors (hCB2, hCB1, respectively) and at the rat CB2 receptor (rCB2) was determined by measuring changes in intracellular cyclic AMP (cAMP) levels as described in U.S. Pat. No. 7,517,874.
Sequence of human CB1 receptor (hCB1) (P21554 whole entry): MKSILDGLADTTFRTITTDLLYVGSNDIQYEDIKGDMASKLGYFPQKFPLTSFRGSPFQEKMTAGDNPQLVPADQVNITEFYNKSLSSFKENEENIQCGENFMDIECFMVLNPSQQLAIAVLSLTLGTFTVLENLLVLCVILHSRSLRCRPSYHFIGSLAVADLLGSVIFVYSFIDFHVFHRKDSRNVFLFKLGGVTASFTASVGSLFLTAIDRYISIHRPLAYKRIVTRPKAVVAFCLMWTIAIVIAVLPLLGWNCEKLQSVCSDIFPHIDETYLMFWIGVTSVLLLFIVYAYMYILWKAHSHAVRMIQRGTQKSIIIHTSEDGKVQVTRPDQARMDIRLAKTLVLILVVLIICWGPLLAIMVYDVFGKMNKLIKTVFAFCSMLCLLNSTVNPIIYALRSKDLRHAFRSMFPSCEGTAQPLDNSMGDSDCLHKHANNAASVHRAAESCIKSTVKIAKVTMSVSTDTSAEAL
TR-FRET was measured using a 330-380 nm excitation filter, 615 nm and 665 nm emission filters, dichroic minor 380 nm and Z=10 mm. cAMP concentrations in each well were back-calculated from a cAMP standard curve run concurrently during each assay. Each plate contained 16 wells of forskolin stimulated cells and 16 wells of forskolin plus 1 μM CP55,940-treated cells. Concentrations of cAMP were expressed as a percent of the difference of these two groups of wells. Concentration-response data including EC50 (the concentration of compound producing 50% of the maximal response) and intrinsic activity (the percent maximal activation compared to full activation by CP55, 940) were determined using a four-parameter non-linear regression algorithm (CambridgeSoft Bioassay).

The target of assay [2] is human CB2 receptor (hCB2) (Homo sapiens, UniProt P34972). Kind of assay: cAMP assay at human CB2 receptor. The assay is classed as cell-based. The settings on record: hCB2R, maximum measurable range 30 μM. Here is the method:
TR-FRET was measured using a 330-380 nm excitation filter, 615 nm and 665 nm emission filters, dichroic minor 380 nm and Z=10 mm. cAMP concentrations in each well were back-calculated from a cAMP standard curve run concurrently during each assay. Each plate contained 16 wells of forskolin stimulated cells and 16 wells of forskolin plus 1 μM CP55,940-treated cells. Concentrations of cAMP were expressed as a percent of the difference of these two groups of wells.

Setting [3] is: EC50 (Potency at Human CB2 determined by cAMP Assay).

Where two headings read alike, the source gives them in different places. A value given as a limit tells only on which side of the number the result lay.

Sequence of human CB2 receptor (hCB2) (P34972 whole entry): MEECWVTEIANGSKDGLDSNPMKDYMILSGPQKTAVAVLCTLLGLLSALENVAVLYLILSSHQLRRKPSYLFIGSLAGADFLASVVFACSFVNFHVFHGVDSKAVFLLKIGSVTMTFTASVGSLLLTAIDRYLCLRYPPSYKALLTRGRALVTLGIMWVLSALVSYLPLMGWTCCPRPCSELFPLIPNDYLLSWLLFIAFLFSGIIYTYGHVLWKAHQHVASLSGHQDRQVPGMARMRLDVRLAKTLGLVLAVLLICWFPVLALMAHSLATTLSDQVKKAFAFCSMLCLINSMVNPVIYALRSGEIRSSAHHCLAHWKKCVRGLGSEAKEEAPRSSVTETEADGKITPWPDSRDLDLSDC

On to `CNC(=O)[C@@H](NC(=O)n1nc(-c2ccc(F)c(F)c2)c2c1CCC(O)C2)C(C)(C)C` (mixture of isomers) [Compound 67, 3-(3,4-difluorophenyl)-N—((S)-3,3-dimethyl-1-(methylamino)-1-oxobutan-2-yl)-5-hydroxy-4,5,6,7-tetrahydro-1H-indazole-1-carboxamide], for which the EC50 in assay [1] and in assay [2] (setting [3]) was less than 1000 nM each time.
With `CNC(=O)[C@@H](NC(=O)n1nc(-c2ccc(F)c(F)c2)c2c1CCCC2)C(C)(C)C` [Compound 29, (S)-3-(3,4-difluorophenyl)-N-(3,3-dimethyl-1-(methylamino)-1-oxobutan-2-yl)-4,5,6,7-tetrahydro-1H-indazole-1-carboxamide], the EC50 in assay [1] and in assay [2] (setting [3]) was less than 1000 nM in each case.
In the case of `CNC(=O)[C@@H](NC(=O)n1nc(-c2cc(F)c(F)cc2F)c2c1CCOC2)C(C)(C)C` [Compound 30, (S)—N-(3,3-dimethyl-1-(methylamino)-1-oxobutan-2-yl)-3-(2,4,5-trifluorophenyl)-6,7-dihydropyrano[4,3-c]pyrazole-1(4H)-carboxamide], the concentration for a half-maximal effect (EC50) in assay [1] and in assay [2] (setting [3]) was less than 1000 nM in each case.
As for `CC(C)(C)[C@H](NC(=O)n1nc(-c2cc(F)c(F)cc2F)c2c1CCOC2)C(=O)N1CC[C@H](O)C1` [Compound 31, N—((S)-1-((S)-3-hydroxypyrrolidin-1-yl)-3,3-dimethyl-1-oxobutan-2-yl)-3-(2,4,5-trifluorophenyl)-6,7-dihydropyrano[4,3-c]pyrazole-1(4H)-carboxamide], the EC50 in assay [1] and in assay [2] (read-out: EC50 (Potency at Human CB2 determined by cAMP Assay)) was less than 1000 nM each time.
`CN1CCN(C(=O)[C@@H](NC(=O)n2nc(-c3cc(F)c(F)cc3F)c3c2CCOC3)C(C)(C)C)CC1` [Compound 32, (S)—N-(3,3-dimethyl-1-(4-methylpiperazin-1-yl)-1-oxobutan-2-yl)-3-(2,4,5-trifluorophenyl)-6,7-dihydropyrano[4,3-c]pyrazole-1(4H)-carboxamide]: the EC50 in assay [1] and in assay [2] (setting [3]) was less than 1000 nM throughout.
With `CC(C)(C)[C@@H](CO)NC(=O)n1nc(-c2cc(F)c(F)cc2F)c2c1CCOC2` [Compound 33, (S)—N-(1-hydroxy-3,3-dimethylbutan-2-yl)-3-(2,4,5-trifluorophenyl)-6,7-dihydropyrano[4,3-c]pyrazole-1(4H)-carboxamide], the EC50 in assay [1] and in assay [2] (setting [3]) was less than 1000 nM in each case.
On to `COC(=O)[C@@H](NC(=O)n1nc(-c2cc(F)c(F)cc2F)c2c1CCOC2)C(C)(C)C` [Compound 34, (S)-methyl 3,3-dimethyl-2-(3-(2,4,5-trifluorophenyl)-1,4,6,7-tetrahydropyrano[4,3-c]pyrazole-1-carboxamido)butanoate], for which the concentration for a half-maximal effect (EC50) in assay [1] and in assay [2] (setting [3]) was less than 1000 nM throughout.
Consider `CNC(=O)[C@@H](NC(=O)n1nc(-c2cc(F)c(F)cc2F)c2c1CN(C)CC2)C(C)(C)C` [Compound 38, (S)—N-(3,3-dimethyl-1-(methylamino)-1-oxobutan-2-yl)-6-methyl-3-(2,4,5-trifluorophenyl)-4,5,6,7-tetrahydro-1H-pyrazolo[3,4-c]pyridine-1-carboxamide], for which the EC50 in assay [1] and in assay [2] (setting [3]) was less than 1000 nM each time.
On to `CNC(=O)[C@@H](NC(=O)n1nc(-c2cc(F)c(F)cc2F)c2c1CCCN2C)C(C)(C)C` [Compound 39, (S)—N-(3,3-dimethyl-1-(methylamino)-1-oxobutan-2-yl)-4-methyl-3-(2,4,5-trifluorophenyl)-4,5,6,7-tetrahydro-1H-pyrazolo[4,3-b]pyridine-1-carboxamide], for which the EC50 in assay [1] and in assay [2] (setting [3]) was less than 1000 nM in each case.
With `CN1CCc2c(c(-c3cc(F)c(F)cc3F)nn2C(=O)N[C@H](C(=O)NCCO)C(C)(C)C)C1` [Compound 40, (S)—N-(1-(2-hydroxyethylamino)-3,3-dimethyl-1-oxobutan-2-yl)-5-methyl-3-(2,4,5-trifluorophenyl)-4,5,6,7-tetrahydro-1H-pyrazolo[4,3-c]pyridine-1-carboxamide], the half-maximal effective concentration (EC50) in assay [1] and in assay [2] (setting [3]) was less than 1000 nM in each case.
